One assay addresses Bombesin BB1 (Homo sapiens, UniProt P28336). In words: Radioligand binding assay, Bombesin BB1. The note with it: CONC. 10 μM, hum. As for the experimental part: Methods employed in this study have been adapted from the scientific literature to maximize reliability and reproducibility. Reference standards were run as an integral part of each assay to ensure the validity of the results obtained. Assays were performed under conditions described in the accompanying “Methods” section below. The literature reference(s) for each assay are in the “Literature References” section.
Where presented, IC50 values were determined by a non-linear, least squares regression analysis using MathIQ™ (ID Business Solutions Ltd., UK). Where inhibition constants (KI) are presented, the KI values were calculated using the equation of Cheng and Prusoff (Cheng, Y., Prusoff, W. H., Biochem. Pharmacol. 22:3099-3108, 1973) using the observed IC50 of the tested compound, the concentration of radioligand employed in the assay, and the historical values for the KD of the ligand (obtained experimentally at Ricerca Biosciences, LLC). Where presented, the Hill coefficient (nH), defining the slope of the competitive binding curve, was calculated using MathIQ™. […] Where IC50, KI, and/or nH data are presented without Standard Error of the Mean (SEM), data are insufficient to be quantitative, and the values presented (KI, IC50, nH) should be interpreted with caution. […]

A short description of assay [1]: Screen at 10 μM against 168 targets. The class given is binding.

The results in this text go back to US9364467B2 (Salix Pharmaceuticals, Ltd, priority 2012, dated 2016).

The inhibition is the drop in the measured response relative to a control, in per cent. A low value points to a weak effect.

Structures are written as SMILES.

Chain of Bombesin BB1 (P28336 whole entry): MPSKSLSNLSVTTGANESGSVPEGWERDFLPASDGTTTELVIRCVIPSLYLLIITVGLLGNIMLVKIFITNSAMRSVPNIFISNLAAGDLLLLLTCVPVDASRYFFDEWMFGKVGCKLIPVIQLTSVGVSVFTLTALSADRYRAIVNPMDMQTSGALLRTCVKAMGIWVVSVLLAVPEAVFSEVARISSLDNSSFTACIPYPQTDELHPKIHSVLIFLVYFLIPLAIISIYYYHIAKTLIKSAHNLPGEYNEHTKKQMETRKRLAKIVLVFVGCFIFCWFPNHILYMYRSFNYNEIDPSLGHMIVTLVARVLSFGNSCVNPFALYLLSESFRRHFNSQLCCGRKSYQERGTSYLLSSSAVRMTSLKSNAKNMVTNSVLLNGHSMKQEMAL

For the compound `COC1/C=C/O[C@@]2(C)Oc3c(C)c(O)c4c(O)c(c5c(c4c3C2=O)NC2C=C(C)C=CN52)NC(=O)/C(C)=C\C=C\C(C)C(O)C(C)C(O)C(C)C(O)C1C` (stereo partly drawn) [25-desacetyl rifaximin], the inhibition at 10 µM on Bombesin BB1 is more than 50%. Besides, the “hits (50% effect, either inhibition or stimulation) in screen against 168 targets” value in assay [1] is “two “hits””.

Compound `CO[C@H]1/C=C/O[C@@]2(C)Oc3c(C)c(O)c4c(O)c(c5c(nc6cc(C)ccn65)c4c3C2=O)NC(=O)/C(C)=C\C=C\[C@H](C)[C@H](O)[C@@H](C)[C@@H](O)[C@@H](C)[C@H](OC(C)=O)[C@@H]1C` [Rifaximin, reference compound] gave an inhibition at 10 µM at Bombesin BB1 of less than 50%.
